“And” between values parts separate entries of the source, which are not always exact repeats. Equal entries are not always repeated.
Assays:
zebrafish larvae [1] = assay: Nontargeted analysis of PFAS metabolites in zebrafish larvae (high-resolution MS)
Procedure: Zebrafish embryos were collected immediately after spawning, within 1 h, and subsequently transferred to 24-well plates with 1mL of facility water ( 0.036g sea salt, 0.15g sodium bicarbonate in 2L of reverse osmosis water). […] Three well replicates on the same plate were conducted for each concentration of individual chemical. […] Seven batches of experiments were performed to test all 74 PFAS. DMSO controls were incorporated in each batch of exposure experiments. Three replicates were performed for each treatment group, and 20 embryos were used for each replicate. […] For daily replenishment, 2.5mL of old exposure medium were replaced with freshly prepared medium every 24 h from 24 to 96 h post fertilization (hpf). Hatched or dead embryo numbers were recorded every 24 hpf, after which dead embryos were discarded from the growth media. Dead embryos or unhatched embryos were not used for PFAS measurement because the metabolism of PFAS might have been impacted. Zebrafish larvae collection occurred at 120 hpf. First, the larvae were anesthetized by cooling the plate in ice water (0–4°C) for ∼20 min . Then 8–15 larvae in each well were transferred into 1.5-mL tubes. Exposure media was carefully removed, and then the larvae were weighed (wet weight) after blotting excess water with a paper towel. […] Samples were stored at −80 °C until further chemical analysis was performed. Survival rate and hatching rate were calculated by summarizing all the documented data from the whole treatment duration. […] The exposure experiment of PFOSA was repeated using the same procedure as described above.
Each sample was spiked with 2μL of 0.2μg/mL mass-labeled PFAS mixture. Following this, 500μL of dichloromethane/methanol (2:1, vol/vol) was added to each sample for PFAS extraction. Larvae were then homogenized via ultrasonic probe, followed by 30 min of shaking and 30 min of sonication. Each sample was centrifuged at 14,000×g for 5 min, after which the supernatant was transferred to new tubes. Extraction was repeated once and the two supernatants were combined, evaporated under nitrogen flow, and reconstituted in 200μL of methanol for MS analysis.
Three microliters of each zebrafish extract was applied to a C18 column ( 1.5μm; 2.1mm×50mm; Thermo Scientific) and analyzed using a Vanquish ultra-HPLC system (Thermo Fisher Scientific) coupled to a Q Exactive high-resolution mass spectrometer (Thermo Fisher Scientific). The sampler and column compartments were maintained at 4°C and 40°C, respectively. The aqueous mobile phase solution (A) consisted of water, whereas the organic mobile phase solution (B) consisted of acetonitrile. […] MS data was acquired in full scan mode (100–1000 m/z, 70,000 mass resolution, 3×10^6 maximum ions collected per 100 ms), and tandem MS (MS/MS) data was recorded by all-ion fragmentation (AIF) mode. Negative and positive ion modes were carried out simultaneously at a 10-min method duration. […] An overview of the analyses conducted on the various PFAS is available in Table S2.
Nontargeted data analysis was accomplished with R scripts that are available on Github (https://github.com/huiUofT/PFASmetabolite). […] The peak features were matched across samples with a mass tolerance of 2.5 ppm and a RT window of 20 s, after RT adjustment. The ratio of abundances of each feature in treatment groups relative to the control group (DMSO) was calculated. The p -values of the difference between two groups were determined by student’s t -tests.

zebrafish larvae [2] = assay: Identification of taurine conjugates by the DIPIC-Frag method in zebrafish larvae; assay type: in vivo, Danio rerio; conditions: among 74 PFAS
From the text: To identify the taurine conjugates in zebrafish larvae exposed to PFAS, we used the data-independent precursor isolation and characteristic fragment (DIPIC-Frag) method developed in previous studies ([Peng et al. 2015], [2016]) to enhance the coverage inspired by the detection of the characteristic fragment from taurine conjugates ( [taurine-H]^− , m/z 124.0063). Then, the taurine fragment peak was extracted from each AIF window across all 243 raw MS data. Once the taurine fragment peak was detected, corresponding precursor ions were identified from the same window and sample by aligning their chromatographic peaks. The precursor ions were further confirmed by their co-occurrences with the taurine fragment across samples. Once precursor ions were identified, the compound formulas and structures were predicted by interpreting high-resolution MS and MS/MS spectra, as mentioned above.

zebrafish embryos = conditions: for pericardial oedemata, Mean / spinal curvature, Mean / tail dysplasia, Mean: 5μM through 120 hpf, malformation rate; for Mortality (%): 5 µM, exposure through 120 hpf
zebrafish larvae [3] = assay: Bioconcentration factors (BCF) of PFAS in zebrafish larvae; conditions: zebrafish larvae; for BCF 0.5µM: 0.5 µM exposure; for BCF 0.5µM / BCF 5µM: 120 hpf, three replicates; for BCF 5µM: 5 µM exposure
Summary of the method: (§1)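 Zebrafish embryos collected within 1 h post-spawning were exposed individually to each PFAS in facility water with DMSO controls, medium renewed every 24 h from 24 to 96 hpf. Live hatched larvae collected at 120 hpf, wet-weighed, extracted with dichloromethane/methanol and analysed by UHPLC–high-resolution MS against mass-labelled standards.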

[4] = tested on: liver fatty acid binding protein (L-FABP); set-up: method as in Yang et al. 2020; conditions: ref Yang et al. 2020, cited from earlier work; for Kd: read-out: Kd (μM), L-FABP binding affinity
soil microcosms = tested on: soil microcosms; set-up: method as in Mejia-Avendaño et al. 2016; conditions: ref Mejia-Avendaño et al. 2016; cited from earlier work
[5] = Bioconcentration factors (BCF) of PFAS in zebrafish larvae; conditions: zebrafish (Danio rerio), whole larvae, other: immersion in exposure medium, 5 µM
Summary of the method: as §1

| SMILES | Profile of metabolites (%): Alcohol (zebrafish larvae [1]; zebrafish larvae, Figure 5B) | Peak intensity: Alcohol (parent FTOH) (zebrafish larvae [1]; zebrafish larvae, single replicates, Figure 5A) | Taurine conjugates detected (zebrafish larvae [2]) | pericardial oedemata, Mean (zebrafish embryos) | spinal curvature, Mean (zebrafish embryos) | tail dysplasia, Mean (zebrafish embryos) | Mortality (%) (zebrafish embryos) | BCF at 0.5μM compared with 5μM (zebrafish larvae [3]) | BCF 0.5µM (zebrafish larvae [3]) | BCF 5µM (zebrafish larvae [3]) | Metabolite peak features detected (zebrafish larvae [1]; zebrafish larvae exposed to 5μM) | L-FABP ligand [4] | Half-life, biodegradation by soil microcosms (soil microcosms) | concentration at 120 hpf [5] | Peak intensity of PFCA in zebrafish embryos directly exposed to the PFCA (zebrafish larvae [1]; 5μM through 120 hpf, single replicates, listed as PFBA) | Kd [4] |
| --- | --- | --- | --- | --- | --- | --- | --- | --- | --- | --- | --- | --- | --- | --- | --- | --- |
| OCCCCC(F)(F)C(F)(F)C(F)(F)C(F)(F)F [compound 40, 4:4 Fluorotelomer alcohol] | 0.00% | 0 | taurine conjugates were detected | 0.00% | 0.00% | 0.00% | 0% |  |  |  |  |  |  |  |  |  |
| C[N+](C)(C)CCCNS(=O)(=O)C(F)(F)C(F)(F)C(F)(F)C(F)(F)C(F)(F)C(F)(F)C(F)(F)C(F)(F)F [compound 5, Perfluorooctanesulfonamido ammonium iodide] |  |  |  | 0.00% | 1.11% | 0.00% | 2.2% | comparable or even higher BCFs at 5μM | 48.14 L/kg | 56 ± 16 L/kg | 74 | not identified as L-FABP ligands | 142 days |  |  |  |
| O=C(O)C(F)(F)C(F)(F)C(F)(F)F [compound 12, Perfluorobutanoic acid] |  |  |  | 1.11% | 0.00% | 0.00% | 4.4% |  | 2.559 L/kg | 1.0 ± 0.28 L/kg |  |  |  | 3.1 ± 0.88 µM | 3728507 and 3082077 and 5690847 |  |
| O=C(O)C(F)(F)C(F)(F)C(F)(F)C(F)(F)C(F)(F)C(F)(F)C(F)(F)F [compound 74, Perfluorooctanoic acid] |  |  |  | 0.00% | 0.00% | 0.00% | 4.4% |  | 31.5419 L/kg | 17 ± 3.2 L/kg |  |  |  | 76 ± 1.6 µM |  | 18.7 µM |
| O=C(O)CCC(F)(F)C(F)(F)C(F)(F)C(F)(F)C(F)(F)F [compound 14, 2H,2H,3H,3H-Perfluorooctanoic acid] |  |  | taurine conjugates were detected | 0.00% | 0.00% | 1.11% | 1.1% | comparable or even higher BCFs at 5μM | 6.7299 L/kg | 8.7 ± 2.1 L/kg |  |  |  |  |  | 158 µM |
